These results are taken from patent publication US20090054326A1 (NASTECH PHARMACEUTICAL COMPANY INC., priority 2005, published 2009).

Test [1] relates to aminopeptidases. Conditions: cited from earlier work.
In test [2] the test system is normal, human-derived tracheal/bronchial epithelial cells (EpiAirway Tissue Model). Put plainly: Transepithelial electrical resistance (TER) in EpiAirway tissue model. Format: cell-based. To be noted: after one hour exposure at 37° C.; Examples 1-4. As to the method: Samples were evaluated in an in vitro tissue model. […] Inserts were feed for each day of recovery.
TER measurements were accomplished using the Endohm-12 Tissue Resistance Measurement Chamber connected to the EVOM Epithelial Voltohmmeter (World Precision Instruments, Sarasota, Fla.) with the electrode leads. The electrodes and a tissue culture blank insert were equilibrated for at least 20 minutes in MatTek medium with the power off prior to check calibration. The background resistance was measured with 1.5 ml Media in the Endohm tissue chamber and 300 μl Media in the blank insert. The top electrode was adjusted so that it was close to, but not making contact with, the top surface of the insert membrane. Background resistance of the blank insert was about 5-20 ohms. For each TER determination, 300 μl of MatTek medium was added to the insert followed by placement in the Endom chamber. Resistance was expressed as (resistance measured−blank)×0.6 cm^2.

`CC(C)CC(N)B(O)O` (stereo not drawn) [boro-leucine]: the “more effective in enzyme inhibition than bestatin” value in test [1] (relative to bestatin) was “more than 100 times”. Further, the “more effective in enzyme inhibition than puromycin” value in test [1] (relative to puromycin) is “more than 1000 times”.
For the molecule Triton X, in test [2], the “change in TER” value is reported as “essentially a complete reduction in TER”.
